# Reference: US20110130704A1, “COMBINATION OF A LIGHT RAY AND A LIPASE-BIOCONVERTIBLE COMPOUND FOR IMPROVING SKIN AND/OR HAIR APPEARANCE” (L'OREAL, priority 2008, published 2011)
# How the values were obtained:
# [1] = system: lipase (reference L3126 from Sigma); experiment: Hydrolysis of ascorbyl palmitate by lipase with or without blue light radiation (palmitic acid released); format: biochemical; settings: for Test - Control % of variation versus control: light 400-510 nm vs no light; for Test (in ppm palmitic acid released in reaction medium) / Control (in ppm palmitic acid released in reaction medium): lipase + ascorbyl palmitate; for Test (in ppm palmitic acid released in reaction medium): light 400-510 nm; for Control (in ppm palmitic acid released in reaction medium): no light exposure
# Protocol: The lipase (reference L3126 from Sigma) is exposed with stirring to a light radiation with a predominant wavelength of 400-510 nm (FIG. 2: spectrum of blue light used, intensity 0.5 mW/cm^2) in the presence of ethyl lactate (from Sigma or Fluka) according to the set-up described in FIG. 1. The same protocol as that described in Example 1 is carried out, with the replacement of ethyl lactate by ascorbyl palmitate. In the presence of lipase, the ascorbyl palmitate hydrolyses to give palmitic acid and ascorbic acid. The lipase is exposed with stirring to the said radiation with a predominant wavelength ranging from 400 to 510 nm (blue spectrum) in the presence of ascorbyl palmitate. An increase in the hydrolysis proportional to the time of exposure of the lipase to the said radiation is found, as presented in the following table: […]
# [2] = system: lipase (reference L3126 from Sigma); experiment: Hydrolysis of ethyl lactate by lipase with or without blue light radiation (lactic acid formed is determined); format: biochemical; settings: for Test - Control % of variation versus control: light 400-510 nm vs no light; for Test (ppm lactic acid in reaction medium) / Control (ppm lactic acid in reaction medium): lipase + ethyl lactate; for Test (ppm lactic acid in reaction medium): light 400-510 nm; for Control (ppm lactic acid in reaction medium): no light exposure
# Text: In the presence of lipase, ethyl lactate is hydrolysed to give L-lactate (which reacts with water to give lactic acid) and ethanol. The lactic acid thus formed is quantitatively determined.
# The lipase (reference L3126 from Sigma) is exposed with stirring to a light radiation with a predominant wavelength of 400-510 nm (FIG. 2: spectrum of blue light used, intensity 0.5 mW/cm^2) in the presence of ethyl lactate (from Sigma or Fluka) according to the set-up described in FIG. 1.
# The control corresponds to bringing together the lipase and the ethyl lactate under the same conditions, without exposure to the said light radiation. An increase in the hydrolysis of the ethyl lactate, with respect to the control, is found.
structure (smiles),measurement,setting,value
CCCCCCCCCCCCCCCC(=O)OC[C@H](O)[C@H]1OC(=O)C(O)=C1O [ascorbyl palmitate],Test - Control % of variation versus control,[1]; reaction time 20 min,1.71%
same,Test - Control % of variation versus control,[1]; reaction time 40 min,2.95%
same,Test - Control % of variation versus control,[1]; reaction time 60 min,9.92%
same,Test - Control % of variation versus control,[1]; reaction time 90 min,11.72%
same,Test (in ppm palmitic acid released in reaction medium),[1]; reaction time 20 min,63.96 ppm
same,Test (in ppm palmitic acid released in reaction medium),[1]; reaction time 40 min,77.15 ppm
same,Test (in ppm palmitic acid released in reaction medium),[1]; reaction time 60 min,98.99 ppm
same,Test (in ppm palmitic acid released in reaction medium),[1]; reaction time 90 min,119.51 ppm
same,Control (in ppm palmitic acid released in reaction medium),[1]; reaction time 20 min,62.89 ppm
same,Control (in ppm palmitic acid released in reaction medium),[1]; reaction time 40 min,74.87 ppm
same,Control (in ppm palmitic acid released in reaction medium),[1]; reaction time 60 min,89.16 ppm
same,Control (in ppm palmitic acid released in reaction medium),[1]; reaction time 90 min,105.5 ppm
CCOC(=O)C(C)O (stereo not drawn) [ethyl lactate],Test - Control % of variation versus control,[2]; reaction time 20 min,5.16%
same,Test - Control % of variation versus control,[2]; reaction time 40 min,9.08%
same,Test - Control % of variation versus control,[2]; reaction time 90 min,17.94%
same,Test (ppm lactic acid in reaction medium),"[2]; 0.5 mW/cm^2, reaction time 20 min",0.48 ppm
same,Test (ppm lactic acid in reaction medium),"[2]; 0.5 mW/cm^2, reaction time 40 min",0.69 ppm
same,Test (ppm lactic acid in reaction medium),"[2]; 0.5 mW/cm^2, reaction time 90 min",0.84 ppm
same,Control (ppm lactic acid in reaction medium),[2]; reaction time 20 min,0.45 ppm
same,Control (ppm lactic acid in reaction medium),[2]; reaction time 40 min,0.62 ppm
same,Control (ppm lactic acid in reaction medium),[2]; reaction time 90 min,0.69 ppm
